Assay results: US8236756B2, “Prodrugs cleavable by CD26” (Consejo Superior de Investigaciones Clentificas (CSIC), priority 2003, dated 2012)

Target: T1, purified CD26 (Homo sapiens, UniProt P27487)
T1 construct: made in house
Assay: Conversion of peptide prodrugs to parent compound by purified CD26 (HPLC)
Format: biochemical
Conditions: for Conversion % to parent compound by purified CD26, 4 h / Conversion % to parent compound by purified CD26, 24 h / Conversion % to parent compound by purified CD26, 1 h: Table 1; for Conversion % to parent compound by purified CD26, 4 h / Conversion % to parent compound by purified CD26, 24 h / % conversion to parent compound by purified CD26, 4 h / % conversion to parent compound by purified CD26, 24 h / Conversion % to parent compound by purified CD26, 1 h / % conversion to parent compound by purified CD26, 1 h: purified CD26 1.5 mUnits
Description: To reveal whether CD26 recognizes such synthetic di/tripeptide derivatives of lipophilic nucleoside analogues as a substrate, 50 μM CAM-405 or CAM-431 was exposed to 5.7 mUnits of purified CD26, and the conversion of CAM-405 or CAM-431 to respectively CAM-212 or CAM-403 (Val-NAP-TSAO) was recorded in function of incubation time by HPLC analysis. […] Within the first 10 min of the reaction, at least 20% of CAM-405 had been converted to CAM-212, fifty percent of the TSAO dipeptide derivative was converted to CAM-212 within 30 min of the reaction and ˜67% of CAM-405 was hydrolyse after 60 min. Thus, the reaction rate started already to slow down after the first 10 min of drug exposure (FIG. 2). Most likely, the release of the reaction product Val-Pro dose-dependently feed-back inhibited the CD26-catalysed dipeptidyl-peptidase reaction. […] Thus, in the presence of 50 μM CAM-405, hydrolysis of 50% of CAM-405 to CAM-212 results in the appearance of 25 μM Val-Pro, that is a concentration that (feed-back) inhibits the CD26 reaction by ˜50%. These findings explain why the CD26-catalysed reaction levels-off shortly after the start of the exposure of the drug to CD26. […] Thus, a further level of modulation of the rate of prodrug release can be introduced by choosing a dipeptide moiety that competes for the active site of CD26, until the dipeptide has diffused from the tissue wherein CD26 is present. The inhibitory activity of any dipeptide can be evaluated by the above mentioned assay.
The conversion rate in function of time is given in Table 1 for NAP-TSAO-dipeptides where the dipeptide consists of: Val-Pro, Val-D-Pro, Asp-Pro, Lys-Pro, Tyr-Pro, Gly-Pro, Val-4-hydroxyPro, Gly-3,4-dihydroxyPro, but also Val-Gly, Val-Ala, Val-Leu and Val-Phe. It is clear that the conversion rate to the parent NAP-TSAO differs depending the nature of the dipeptide. Also, when the terminal amine of the dipeptide has been blocked by a lipophilic group (i.e. methyl, Z or Fmoc), the prodrug looses measurable substrate activity for CD26.
The conversion rate in function of time is given in Table 2 for tetrapeptide NAP-TSAO compounds where the tetrapeptide consists of: Val-Pro-Val-Pro [SEQ ID no:6] (CAM 467), Val-Ala-Val-Pro [SEQ ID no:7] (CAM 473) or Lys-Pro-Asp-Pro [SEQ ID no:8] (CAM 477). […] Only traces of dipeptide prodrug (CAM 405) is seen as intermediate in the conversion of the tetrapeptide CAM 473 to NAP-TSAO.
All enzyme activity assays were performed in Eppendorf tubes on a heating block at 37° C. To each tube were added 32 μl CD26 (at a final concentration of 1.5 milliUnits) or 10 μl foetal bovine serum (BS) (final concentration: 2.5% BS in PBS; preheated at 56° C. for 30 min) or 10 μl human serum (HS) (final concentration: 2.5% HS in PBS), 40 μl of appropriate concentrations of inhibitor (Diprotin A) solution in PBS (for the exact concentrations, see the legend to FIG. 5), CAM-405 (the substrate of the reaction) at […] (final concentration) and PBS to reach a total volume of 400 μl. The pH of the reaction mixture was 7.5, which is virtually identical to the physiological pH of plasma. The reaction was started by the addition of the enzyme or serum and carried out at 37° C. After 5 hr, 100 μl reaction mixture was taken from the Eppendorf tube and added to 200 μl cold methanol to precipitate the proteins. After 10 min standing on ice, the contents of the tubes were centrifuged and the supernatants analysed by HPLC on a reverse phase column (RP-8, Merck Laboratories). CAM-405 was separated from CAM-212 (the product of the reaction) by a gradient of 50 mM sodium phosphate+5 mM heptane sulfonic acid pH 3.2 (Buffer A) and acetonitrile (Buffer B) as follows: Buffer A: 98%+2% Buffer B, 2 min; linear gradient to 20% Buffer. […]

T1 sequence (P27487 whole entry): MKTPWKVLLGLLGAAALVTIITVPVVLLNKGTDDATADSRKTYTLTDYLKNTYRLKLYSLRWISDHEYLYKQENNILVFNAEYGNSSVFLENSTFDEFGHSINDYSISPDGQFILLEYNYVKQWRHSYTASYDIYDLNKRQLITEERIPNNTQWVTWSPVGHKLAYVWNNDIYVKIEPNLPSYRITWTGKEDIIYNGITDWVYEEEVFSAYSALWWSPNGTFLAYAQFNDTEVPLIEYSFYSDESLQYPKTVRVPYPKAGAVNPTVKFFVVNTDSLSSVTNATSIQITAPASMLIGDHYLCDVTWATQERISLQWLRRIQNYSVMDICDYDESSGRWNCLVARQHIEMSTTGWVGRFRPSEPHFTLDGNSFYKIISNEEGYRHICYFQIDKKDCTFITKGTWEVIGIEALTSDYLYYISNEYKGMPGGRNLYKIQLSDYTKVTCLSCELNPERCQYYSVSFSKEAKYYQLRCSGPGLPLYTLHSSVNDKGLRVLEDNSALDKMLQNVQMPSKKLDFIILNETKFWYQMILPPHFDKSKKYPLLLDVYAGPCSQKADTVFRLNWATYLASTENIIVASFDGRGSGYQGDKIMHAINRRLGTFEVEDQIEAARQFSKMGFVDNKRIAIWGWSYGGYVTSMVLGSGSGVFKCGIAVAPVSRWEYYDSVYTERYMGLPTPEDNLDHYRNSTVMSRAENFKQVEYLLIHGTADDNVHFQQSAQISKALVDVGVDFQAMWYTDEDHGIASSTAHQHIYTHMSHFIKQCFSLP

`Cc1cn(C2OC(CO[Si](C)(C)C(C)(C)C)C3(OS(=O)(=O)C=C3N)C2O[Si](C)(C)C(C)(C)C)c(=O)n(CCCNC(=O)[C@@H]2CCCN2C(=O)[C@@H](N)CCCCN)c1=O` (stereo partly drawn) [CAM-437, H-Lys-Pro-NAP-TSAO] was tested, and the “Conversion % to parent compound by purified CD26, 4 h” value (“Conversion % … by purified CD26, 4 h” below) was 85%, the “Conversion % to parent compound by purified CD26, 24 h” value (“Conversion % … 24 h” below) was 99% and the “% conversion to parent compound by purified CD26, 4 h” value (“% conversion … by purified CD26, 4 h” for short) (Table 2) was 85%. The “% conversion to parent compound by purified CD26, 24 h” value (“% conversion … 24 h” for short) (Table 2) was 99% and the “Conversion / substrate activity with purified CD26, in words” value (from here on “Conversion / substrate activity”) was “completely removed”.
In the case of NH2-Val-HyPro(Bzl)-NAP-TSAO [CAM-462], the “Conversion % … by purified CD26, 4 h” value was 0% and the “Conversion % … 24 h” value was 0%.
In the case of `Cc1cn(C2OC(CO[Si](C)(C)C(C)(C)C)C3(OS(=O)(=O)C=C3N)C2O[Si](C)(C)C(C)(C)C)c(=O)n(CCCNC(=O)[C@@H]2CCCN2C(=O)[C@@H](N)Cc2ccc(O)cc2)c1=O` (stereo partly drawn) [CAM-456, H-Tyr-Pro-NAP-TSAO], the “Conversion % to parent compound by purified CD26, 1 h” value (from here on “Conversion % to parent compound … 1 h”) was 43%, the “Conversion % … by purified CD26, 4 h” value was 66% and the “Conversion % … 24 h” value was 79%.
For `Cc1cn(C2OC(CO[Si](C)(C)C(C)(C)C)C3(OS(=O)(=O)C=C3N)C2O[Si](C)(C)C(C)(C)C)c(=O)n(CCCNC(=O)[C@@H]2CCCN2C(=O)CN)c1=O` (stereo partly drawn) [CAM-458, H-Gly-Pro-NAP-TSAO], the “Conversion % to parent compound … 1 h” value was 5%, the “Conversion % … by purified CD26, 4 h” value was 20% and the “Conversion % … 24 h” value was 58%.
For `Cc1cn(C2OC(CO[Si](C)(C)C(C)(C)C)C3(OS(=O)(=O)C=C3N)C2O[Si](C)(C)C(C)(C)C)c(=O)n(CCCNC(=O)[C@@H]2CCCN2C(=O)[C@@H](N)CC(=O)O)c1=O` (stereo partly drawn) [CAM-435, H-Asp-Pro-NAP-TSAO], the “Conversion % … by purified CD26, 4 h” value was 7.9%, the “Conversion % … 24 h” value was 30% and the “% conversion … by purified CD26, 4 h” value (Table 2) was 7.9%. The “% conversion … 24 h” value (Table 2) was 30%.
For `Cc1cn(C2OC(CO[Si](C)(C)C(C)(C)C)C3(OS(=O)(=O)C=C3N)C2O[Si](C)(C)C(C)(C)C)c(=O)n(CCCNC(=O)C2CCCN2C(=O)C(NC(=O)C2CCCN2C(=O)C(NC(=O)OCc2ccccc2)C(C)C)C(C)C)c1=O` (stereo not drawn) [CAM-466, Z-Val-Pro-Val-Pro-NAP-TSAO], the “% conversion to parent compound by purified CD26, 1 h” value (shortened to “% conversion to parent compound … 1 h”) (Table 2) was 0%, the “% conversion … by purified CD26, 4 h” value (Table 2) was 0% and the “% conversion … 24 h” value (Table 2) was 0%.
For `COc1cccc2c1C(=O)c1c(O)c3c(c(O)c1C2=O)CC(O)(C(=O)CO)CC3OC1CC(NC(=O)C2CCCN2C(=O)C(N)C(C)C)C(O)C(C)O1` (stereo not drawn) [CAM-469, H-Val-Pro-Doxorubicin], the “% conversion to parent compound … 1 h” value (Table 5) was 78%, the “% conversion … by purified CD26, 4 h” value (Table 5) was 95% and the “% conversion … 24 h” value (Table 5) was 97%. For the same compound, the “Conversion / substrate activity” value was “very efficiently converted”.
In the case of `CNC(C(=O)N1CCCC1C(=O)NC(C(=O)NCCCn1c(=O)c(C)cn(C2OC(CO[Si](C)(C)C(C)(C)C)C3(OS(=O)(=O)C=C3N)C2O[Si](C)(C)C(C)(C)C)c1=O)C(C)C)C(C)C` (stereo not drawn) [CAM-407, Me-NH-Val-Pro-Val-NHP-TSAO], the “Conversion % to parent compound … 1 h” value was 0%, the “Conversion % … by purified CD26, 4 h” value was 0% and the “Conversion % … 24 h” value was 0%. The “Conversion / substrate activity” value was “completely lacked substrate activity”.
In the case of `Cc1cn(C2OC(CO[Si](C)(C)C(C)(C)C)C3(OS(=O)(=O)C=C3N)C2O[Si](C)(C)C(C)(C)C)c(=O)n(CCCNC(=O)C2CCCN2C(=O)C(NC(=O)C(C)NC(=O)C(N)C(C)C)C(C)C)c1=O` (stereo not drawn) [CAM-473, H-Val-Ala-Val-Pro-NAP-TSAO], the “% conversion to parent compound … 1 h” value (Table 2) was 12%, the “% conversion … by purified CD26, 4 h” value (Table 2) was 54% and the “% conversion … 24 h” value (Table 2) was 70%. For the same compound, the “Conversion / substrate activity” value was “occurs faster than with the Val-Ala-NAP-TSAO”.
With H-Val-Pro-Val-NHP-TSAO [CAM-411] the “Conversion % to parent compound … 1 h” value was 33% and the “Conversion % … by purified CD26, 4 h” value was 60%.
With `Cc1cn(C2OC(CO[Si](C)(C)C(C)(C)C)C3(OS(=O)(=O)C=C3N)C2O[Si](C)(C)C(C)(C)C)c(=O)n(CCCNC(=O)C2CCCN2C(=O)C(NC(=O)C2CCCN2C(=O)C(N)C(C)C)C(C)C)c1=O` (stereo not drawn) [CAM-467, H-Val-Pro-Val-Pro-NAP-TSAO] the “% conversion to parent compound … 1 h” value (Table 2) was 43%, the “% conversion … by purified CD26, 4 h” value (Table 2) was 86% and the “% conversion … 24 h” value (Table 2) was 88%. For the same compound, the “Conversion / substrate activity” value was “quickly converted”.
For `Cc1cn(C2OC(CO[Si](C)(C)C(C)(C)C)C3(OS(=O)(=O)C=C3N)C2O[Si](C)(C)C(C)(C)C)c(=O)n(CCCNC(=O)[C@@H]2CC(O)CN2C(=O)[C@@H](N)C(C)C)c1=O` (stereo partly drawn) [CAM-163, H-Val-4HyPro-NAP-TSAO], the “Conversion % to parent compound … 1 h” value was 4.1%, the “Conversion % … by purified CD26, 4 h” value was 18% and the “Conversion % … 24 h” value was 53%.
For `COc1cccc2c1C(=O)c1c(O)c3c(c(O)c1C2=O)CC(O)(C(=O)CO)CC3OC1CC(NC(=O)C2CCCN2C(=O)C(NC(=O)OCC2c3ccccc3-c3ccccc32)C(C)C)C(O)C(C)O1` (stereo not drawn) [CAM-468, Fmoc-Val-Pro-Doxorubicin], the “% conversion to parent compound … 1 h” value (Table 5) was 0%, the “% conversion … by purified CD26, 4 h” value (Table 5) was 0% and the “% conversion … 24 h” value (Table 5) was 0%. For the same compound, the “Conversion / substrate activity” value was “no conversion”.
In the case of `Cc1cn(C2OC(CO[Si](C)(C)C(C)(C)C)C3(OS(=O)(=O)C=C3N)C2O[Si](C)(C)C(C)(C)C)c(=O)n(CCCNC(=O)[C@@H](NC(=O)OCc2ccccc2)C(C)C)c1=O` (stereo partly drawn) [CAM-404, Z-Val-NAP-TSAO], the “Conversion % to parent compound … 1 h” value was 0%, the “Conversion % … by purified CD26, 4 h” value was 0% and the “Conversion % … 24 h” value was 0%.
H-Gly-3.4Hypro-NAP-TSAO [CAM-465] was tested, and the “Conversion % … by purified CD26, 4 h” value was 0% and the “Conversion % … 24 h” value was 0%.
`CC(C)[C@H](N)C(=O)N1CCC[C@H]1C(=O)Nc1ccc2ncccc2c1` [CAM-475, H-Val-Pro-6-Aminoquinoline] was tested, and the “% conversion to parent compound … 1 h” value (Table 5) was 99%, the “% conversion … by purified CD26, 4 h” value (Table 5) was 100% and the “% conversion … 24 h” value (Table 5) was 100%. For the same compound, the “Conversion / substrate activity” value was “complete conversion within 1 hr”.
